Assay results reported in patent US20230381142A1, “ANTILEISHMANIAL COMPOUNDS, COMPOSITIONS AND USE THEREOF” (TRUSTEES OF BOSTON UNIVERSITY, priority 2022, published 2023).
Read-outs that look alike come from different tables or passages of the source.

Columns and labels:
[1] = GSK inMac assay, host cell toxicity readout (LD MAC); assay type: cell-based, human; settings: human
Procedure: (§1) The intramacrophage Leishmania donovani activity assay (LD AMMAC) at GlaxoSmithKline was performed as described.
(§2) Given the literature precedents described above and the apparent narrow tolerance for R^3 substitutions observed in the primary screen compounds, a thorough and methodical assessment was undertaken of tolerated groups at the three points of diversity (R^1/R^2/R^3) for the core. At this stage of the project, all analogues were assessed using a battery of assays performed in-house at GlaxoSmithKline. For antileishmanial activity, GSK's inMac assay was utilized. This assay provides two readouts of compound potency: average number of intracellular amastigotes per infected cell (AMMAC) EC50, percentage of infected cells per well (INFCELL) EC50, as well as a toxicity output derived from the number of host cells (MAC EC50). In addition, compounds were assessed for toxicity against HepG2 cells (HEPG2 EC50). Here, AMMAC EC50 values were focused on for relative potency assessments. […] It should be noted that for all compounds assessed in this project, the measured toxicity against THP-1 macrophages either equaled or exceeded that of HepG2 hepatocytes, therefore the MAC SI is used here as the more conservative estimate of therapeutic index.

[2] = system: L. donovani intracellular amastigotes infecting THP-1 macrophages; experiment: GSK intramacrophage L. donovani assay (LD AMMAC, inMac; Assay Conditions C); assay type: cell-based; settings: Leishmania donovani
Procedure: Assay Conditions C: The intramacrophage Leishmania donovani activity assay was performed as described in Antimicrob Agents Chemother (2013) 57(7):2913-22.
as §1, §2

[3] = footnote c, read-out: THP-1 Host Cell CC50
[4] = THP-1 cells, values marked c, read-out: L. donovani amastigotes EC50 (THP-1 cells)
[5] = values marked c: THP-1 cells, read-out: L. donovani amastigotes EC50 (μM, THP-1 or B10R cells)

With `COc1ccc(N2C(=O)c3[nH]nc(CC(C)C)c3C2c2ccc(OC)nc2)cc1` (centres unmarked) [CMLD011027] the CC50 [1, 3] was > 50 µM and the EC50 [2, 4] was > 50 µM.
In the case of `COc1ccc(N2C(=O)c3[nH]nc(CC(C)C)c3C2c2cc(F)nc(F)c2)cc1` (centres unmarked) [CMLD011028], the CC50 [1, 3] is reported as > 50 µM and the EC50 [2, 4] is reported as > 50 µM.
Compound `CC(C)Cc1n[nH]c2c1C(c1ccc(F)cc1)N(c1ccc(O)cc1)C2=O` (centres unmarked) [CMLD011029] has a CC50 [1, 3] of 39.8 µM and an EC50 [2, 4] of 5 µM.
In the case of `CC(C)Cc1n[nH]c2c1C(c1ccc(F)cc1)N(C1CCOCC1)C2=O` (centres unmarked) [CMLD011030], the CC50 [1, 3] is reported as > 50 µM and the EC50 [2, 4] is reported as 31.6 µM.
For `CC(C)Cc1n[nH]c2c1C(c1ccc(F)cc1)N(c1ccc(C(=O)O)cc1)C2=O` (centres unmarked) [CMLD011031], the CC50 [1, 3] was > 50 µM and the EC50 [2, 4] was > 50 µM.
In the case of `COc1ccc(N2C(=O)c3[nH]nc(CC(C)C)c3C2c2ccc(C(=O)O)cc2)cc1` (centres unmarked) [CMLD011032], the CC50 [1, 3] is reported as > 50 µM and the EC50 [2, 4] is reported as > 50 µM.
`COC(=O)c1ccc(N2C(=O)c3[nH]nc(CC(C)C)c3C2c2ccc(F)cc2)cc1` (centres unmarked) [CMLD011033] showed a CC50 [1, 3] of 31.6 µM and an EC50 [2, 4] of 1.6 µM.
`COC(=O)c1ccc(C2c3c(CC(C)C)n[nH]c3C(=O)N2c2ccc(OC)cc2)cc1` (centres unmarked) [CMLD011034] showed a CC50 [1, 3] of 39.8 µM and an EC50 [2, 4] of 25.1 µM.
Compound `CCC(C)(COC(C)=O)CN1C(=O)c2[nH]nc(CC(C)C)c2C1c1ccc(F)cc1` (centres unmarked) [CMLD011035] has a CC50 [1, 3] of 25.1 µM and an EC50 [2, 4] of 5 µM.
With `CO[C@H]1CC[C@H](N2C(=O)c3[nH]nc(CC(C)C)c3C2c2ccc(F)cc2)CC1` (some centres unmarked) [CMLD011036] the CC50 [1, 3] was > 50 µM and the EC50 [2, 4] was 25.1 µM.
For `CC(=O)OCC(CO)N1C(=O)c2[nH]nc(CC(C)C)c2C1c1ccc(F)cc1` (centres unmarked) [CMLD011037], the CC50 ([1]; host THP-1 cells) was ≥ 50.1 µM and the EC50 [2, 5] was ≥ 50.1 µM.
With `CC(C)Cc1n[nH]c2c1C(c1ccc(F)cc1)N(CC(C)(CO)CO)C2=O` (centres unmarked) [CMLD011038] the CC50 ([1]; host THP-1 cells) was ≥ 50.1 µM and the EC50 [2, 5] was ≥ 50.1 µM.
For `COc1ccc(OC)c(N2C(=O)c3[nH]nc(CC(C)C)c3C2c2ccc(F)cc2)c1` (centres unmarked) [CMLD011040], the CC50 [1, 3] was ≥ 50.1 µM and the EC50 [2, 4] was 25.1 µM.
In the case of `CC(C)Cc1n[nH]c2c1C(C1CCCCC1)N(c1ccc(C(C)(C)C)cc1)C2=O` (centres unmarked) [CMLD011042], the CC50 [1, 3] is reported as ≥ 50.1 µM and the EC50 [2, 4] is reported as 2.5 µM.
`CC(C)Cc1n[nH]c2c1C(C1CCCCC1)N(c1ccc3c(c1)OCO3)C2=O` (centres unmarked) [CMLD011043] showed a CC50 [1, 3] of 15.8 µM and an EC50 [2, 4] of 5 µM.
For `COc1cccc(N2C(=O)c3[nH]nc(CC(C)C)c3C2C2CCCCC2)c1` (centres unmarked) [CMLD011044], the CC50 ([1]; host THP-1 cells) was ≥ 50.1 µM and the EC50 [2, 5] was 6.3 µM.
`COc1ccccc1N1C(=O)c2[nH]nc(CC(C)C)c2C1C1CCCCC1` (centres unmarked) [CMLD011045] gave a CC50 ([1]; host THP-1 cells) of 25.1 µM and an EC50 [2, 5] of 10 µM.
For `COc1ccccc1N1C(=O)c2[nH]nc(CC(C)C)c2C1c1ccc(F)cc1` (centres unmarked) [CMLD011046], the CC50 [1, 3] was > 50 µM and the EC50 [2, 4] was 20 µM.
For `CC(C)Cc1n[nH]c2c1C(c1ccccc1Cl)N(c1ccc(C(C)(C)C)cc1)C2=O` (centres unmarked) [CMLD011047], the CC50 ([1]; host THP-1 cells) was 7.9 µM and the EC50 [2, 5] was 3.2 µM.
`COc1cc(N2C(=O)c3[nH]nc(CC(C)C)c3C2c2ccc(F)cc2)ccc1F` (centres unmarked) [CMLD011073] showed a CC50 ([1]; host THP-1 cells) of 15.8 µM and an EC50 [2, 5] of 20 µM.
In the case of `COc1ccc(N2C(=O)c3[nH]nc(CC(C)C)c3C2c2nccs2)cc1` (centres unmarked) [CMLD011075], the CC50 [1, 3] is reported as > 50 µM and the EC50 [2, 4] is reported as 20 µM.
Work on `COc1ccc(N2C(=O)c3[nH]nc(CC(C)C)c3[C@H]2c2cccc(C(F)(F)F)c2)cn1` [CMLD011076] yielded a CC50 ([1]; host THP-1 cells) of 15.8 µM and an EC50 [2, 5] of 10 µM.
`COc1cc(N2C(=O)c3[nH]nc(CC(C)C)c3C2c2ccccc2Br)cc(OC)c1OC` (centres unmarked) [CMLD011077] gave a CC50 ([1]; host THP-1 cells) of 6.3 µM and an EC50 [2, 5] of 6.3 µM.
For `CC(C)Cc1n[nH]c2c1C(c1ccccc1Cl)N(c1ccc(F)cc1)C2=O` (centres unmarked) [CMLD011078], the CC50 ([1]; host THP-1 cells) was 20 µM and the EC50 [2, 5] was 4 µM.
`COc1ccc(N2C(=O)c3[nH]nc(CC(C)C)c3C2c2ccc(F)cc2F)cc1` (centres unmarked) [CMLD011079] showed a CC50 [1, 3] of 25.1 µM and an EC50 [2, 4] of 2 µM.
Compound `COC(=O)c1ccc(N2C(=O)c3[nH]nc(CC(C)C)c3C2c2cccc(C(F)(F)F)c2)cc1` (centres unmarked) [CMLD011080] has a CC50 ([1]; host THP-1 cells) of 39.8 µM and an EC50 [2, 5] of 10 µM.
Compound `CC(C)Cc1n[nH]c2c1C(c1cccc(C(F)(F)F)c1)N(c1ccc(Br)cc1)C2=O` (centres unmarked) [CMLD011081] has a CC50 [1, 3] of 31.6 µM and an EC50 [2, 4] of 31.6 µM.
With `CC(C)Cc1n[nH]c2c1C(C1CCCCC1)N(c1ccc(Br)cc1)C2=O` (centres unmarked) [CMLD011087] the CC50 ([1]; host THP-1 cells) was 7.9 µM and the EC50 [2, 5] was 6.3 µM.
In the case of `COc1ccc(N2C(=O)c3[nH]nc(CC(C)C)c3C2c2cccc(OC)c2)cc1` (centres unmarked) [CMLD011088], the CC50 [1, 3] is reported as 20 µM and the EC50 [2, 4] is reported as 4 µM.
With `COc1ccc(N2C(=O)c3[nH]nc(CC(C)C)c3C2C2CCCCC2)cc1F` (centres unmarked) [CMLD011090] the CC50 ([1]; host THP-1 cells) was ≥ 50.1 µM and the EC50 [2, 5] was 5 µM.
`Cc1ccc(CN2C(=O)c3[nH]nc(CC(C)C)c3C2c2ccc(F)cc2)o1` (centres unmarked) [CMLD011092] showed a CC50 [1, 3] of 39.8 µM and an EC50 [2, 4] of 15.9 µM.
